The test system of one series is Kelly cells. Nature of the series: Specific apoptosis induction by betulinic acid derivatives. Type of series: cell-based. Particulars: FIG. 17C. On the procedure: (§1) Quantification of DNA fragmentation was performed by FACS analysis of propidium iodide stained nuclei as described in Nicoletti et al, 1991, J. Immunol. Methods. 139: 271-279. Cells were analyzed for DNA content by flow. cytometry (FACScan, Becton Dickinson, Heidelberg, Germany) using CELLQuest software. Early apoptotic changes were identified by staining with biotinylated annexin V (Bender Med Systems, Vienna, Austria) following the manufacturer's instructions. Annexin V binds to exposed phosphatidylserine on the surface of apoptotic cells. Koopman et al, 1994, Blood. 84:1415-1420. Cells were analyzed by flow cytometry (FAC-Scan. Becton Dickinson) using CELLQuest software.
(§2) More specifically, betulinic acid, 28-acetyl-3-β-D-glucosyl betulin (“B10”), 3-β-28-hydroxylup-20(29)-en-3-yl-β-D-glucopyranoside (“B11”), 3-β-3-hydroxylup-20(29)-en-28-yl-β-D-glucopyranoside (“B12”), and 3-(β-D-glucopyranosyloxy)lup-20(29)-en-28-oic acid (“B13”) have been tested for specific apoptosis induction using the assays shown in Example 2. See, supra. […] (FIG. 17B).

In a further series the test system is IMR-5 cells. The series is described as above. The series is classed as cell-based. Particulars: FIG. 17B. As to the method:
as §1, §2

The subject of series [1] is melanoma cell line (MEL-2). Particulars: previously reported; cited from earlier work.
In series [2] the test system is caspase-3, caspase-8 and PARP in cytosolic extracts from SHEP cells. The experiment in a line: Cleavage of caspases in cytosolic extracts by cytochrome c or AIF. The series is classed as biochemical, human. Particulars: FIG. 11A. On the procedure: For determination of nuclear fragmentation, nuclei (10^3/μl) were incubated with mitochondria (1 μg/μl) in buffer D (10 mM HEPES, pH 7.4, 50 mM NaCl, 2 mM MgCl2, 5 mM EGTA, 1 mM DDT, 2 mM ATP, 10 mM phosphocreatine, 50 μg/ml creatine kinase, 10 μM cytochalasin B) for 2 h at 37° C. Nuclei were stained with propidium iodide ([…]) and analyzed by flow cytometry. For determination of caspase activation, cytosolic extracts (2 μg/μl) were incubated with mitochondria (1 μg/μl), cytochrome c (0.1-100 μM) or AIF-containing mitochondrial supernatant (0.5 μg/μl) in buffer D for 2 h at 37° C. Partially purified AIF (cytochrome c-free) was prepared as previously described (0.5 mg/ml, Susin et al., 1997, J. Exp. Med. 186, 5-37; Susin et al., 1996, J. Exp. Med. 184, 1331-41). Proteins were separated by 15% SDS-PAGE and Western blot analysis was performed as described above. To confirm equal loading of mitochondrial protein, all Western blots were also developed with an antibody directed against a 60 kDa mitochondrial antigen (data not shown).
Cytosolic extracts from SHEP cells were incubated with 0.1-100 μM cytochrome c. Immunodetection of caspases-3, -8 and PARP was performed as described in FIG. 9A.
Cytosolic extracts from SHEP cells transfected with a neomycin resistance vector only (Nec) or bcl-2 were incubated with partially purified AIF. Immunodetection of caspases-3, -8 and PARP was performed as described for FIG. 9A.
For determination of nuclear fragmentation, nuclei (10^3/μl) were incubated with mitochondria (1 μg/μl) in buffer D (10 mM HEPES, pH 7.4, 50 mM NaCl, 2 mM MgCl2, 5 mM EGTA, 1 mM DDT, 2 mM ATP, 10 mM phosphocreatine, 50 μg/ml creatine kinase, 10 μM cytochalasin B) for 2 h at 37° C. Nuclei were stained with propidium iodide ([…]) and analyzed by flow cytometry (Susin et al., 1997 Exp. Cell Res. 236:397-403). For determination of caspase activation, cytosolic extracts (2 μg/μl) were incubated with mitochondria (1 μg/μl), cytochrome c (10 μM) or AIF-containing mitochondrial supernatant (0.5 μg/μl) in buffer D for 2 h at 37° C. […]

The mark [3] stands for this setting: 0.1-100 μM (Ex. 3) or 10 μM (Ex. 4) cytochrome c, partially purified AIF or AIF-containing supernatant, 11B, 16B.

These results are taken from patent US6369109B1, “Betulinic acid and derivatives thereof useful for the treatment of neuroectodermal tumor” (Deutsches Krebsforschungszentrum Stiftung des Offentlichen …, priority 1998, dated 2002).

Entries after “also recorded” stand apart in the source; their conditions may differ.

Turning to `C=C(C)C1CCC2(COC(C)=O)CCC3(C)C(CCC4C5(C)CCC(OC6OC(CO)C(O)C(O)C6O)C(C)(C)C5CCC43C)C12` [B10, 3β-28-(acetyloxy)lup-20(29)-en-3-yl-β-D-glucopyranoside], the “apoptotic activity compared to betulinic acid” value was “at least as high as betulinic acid” in the series on Kelly cells and “enhanced apoptotic activity” with IMR-5 cells.

Consider `C=C(C)[C@@H]1CC[C@]2(CO)CC[C@]3(C)[C@H](CC[C@@H]4[C@@]5(C)CC[C@H](O[C@@H]6O[C@H](CO)[C@@H](O)[C@H](O)[C@H]6O)C(C)(C)[C@@H]5CC[C@]43C)[C@@H]12` [B11, 3-β-28-hydroxylup-20(29)-en-3-yl-β-D-glucopyranoside], for which the “apoptotic activity compared to betulinic acid” value is recorded as “at least as high as betulinic acid” in the series with Kelly cells and “about the same activity as betulinic acid” in the series on IMR-5 cells.

Consider `C=C(C)C1CCC2(COC3OC(CO)C(O)C(O)C3O)CCC3(C)C(CCC4C5(C)CCC(O)C(C)(C)C5CCC43C)C12` [B12, 3-β-3-hydroxylup-20(29)-en-28-yl-β-D-glucopyranoside], for which the “apoptotic activity compared to betulinic acid” value in the series with Kelly cells is reported as “at least as high as betulinic acid”; in the series on IMR-5 cells, “enhanced apoptotic activity”.

For `C=C(C)C1CCC2(C(=O)O)CCC3(C)C(CCC4C5(C)CCC(OC6OC(CO)C(O)C(O)C6O)C(C)(C)C5CCC43C)C12` [B13, 3-(β-D-glucopyranosyloxy)lup-20(29)-en-28-oic acid], the results for the “apoptotic activity compared to betulinic acid” value with Kelly cells and with IMR-5 cells were “at least as high as betulinic acid” and “enhanced apoptotic activity”, respectively.

As to `C=C(C)[C@@H]1CC[C@]2(C(=O)O)CC[C@]3(C)[C@H](CC[C@@H]4[C@@]5(C)CC[C@H](O)C(C)(C)[C@@H]5CC[C@]43C)[C@@H]12` [betulinic acid, 3β-3-hydroxylup-20(29)-en-28-oic acid], in series [1], the cytotoxicity result is reported as “exert cytotoxicity”.

Take cytochrome c: in series [2] (setting [3]), the “cleavage of caspase-3 in cytosolic extracts” value was “triggered the proteolytic processing of caspase-3 to its active subunits; also recorded: resulted in the processing of caspase-3 and PARP”; the “cleavage of caspase-8 in cytosolic extracts” value is listed as “did not induce caspase-8 cleavage; also recorded: did not induce caspase-8 activation”. For the same compound, the “cleavage of PARP in cytosolic extracts” value in series [2] (0.1-100 μM cytochrome c) is on record as “caused caspase-mediated cleavage of PARP”.
